From publication PMC7614784, “Structure and function of the RAD51B-RAD51C-RAD51D-XRCC2 tumour suppressor” (Nature, 2023)

Columns and labels:
[1] = target: T1, BCDX2 (RAD51B-RAD51C-RAD51D-XRCC2) (Homo sapiens, UniProt O15315+O43502+O43543+O75771); test: HPLC of nucleotides extracted from purified complex; assay type: binding; details: nucleotide co-purified with the complex; 2.5 mM Mg2+, pH 7.5
T1 construct: four-subunit complex co-expressed in Sf9 cells; N-terminal TwinStrep-TEV tag on XRCC2 removed by TEV protease
T1 sequence (O15315 1-345): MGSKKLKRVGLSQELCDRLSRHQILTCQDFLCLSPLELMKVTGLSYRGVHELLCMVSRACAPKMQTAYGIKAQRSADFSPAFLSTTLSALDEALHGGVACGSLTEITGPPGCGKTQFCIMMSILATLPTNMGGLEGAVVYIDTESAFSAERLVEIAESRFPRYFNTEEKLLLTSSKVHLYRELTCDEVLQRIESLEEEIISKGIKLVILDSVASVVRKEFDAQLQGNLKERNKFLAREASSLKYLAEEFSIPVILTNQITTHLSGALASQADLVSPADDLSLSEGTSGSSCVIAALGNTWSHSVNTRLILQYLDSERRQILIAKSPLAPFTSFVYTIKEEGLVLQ
T1 sequence (O43502 whole entry): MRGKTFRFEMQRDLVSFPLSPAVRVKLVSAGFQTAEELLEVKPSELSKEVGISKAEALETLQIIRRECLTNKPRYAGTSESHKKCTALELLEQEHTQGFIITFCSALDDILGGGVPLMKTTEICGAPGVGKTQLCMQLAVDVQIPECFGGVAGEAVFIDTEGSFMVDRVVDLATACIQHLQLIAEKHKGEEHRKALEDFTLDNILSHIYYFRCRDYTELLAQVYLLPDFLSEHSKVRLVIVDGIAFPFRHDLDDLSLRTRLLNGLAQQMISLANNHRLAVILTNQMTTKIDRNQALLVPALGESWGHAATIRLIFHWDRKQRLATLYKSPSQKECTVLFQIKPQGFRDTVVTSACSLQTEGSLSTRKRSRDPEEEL
T1 sequence (O75771 whole entry): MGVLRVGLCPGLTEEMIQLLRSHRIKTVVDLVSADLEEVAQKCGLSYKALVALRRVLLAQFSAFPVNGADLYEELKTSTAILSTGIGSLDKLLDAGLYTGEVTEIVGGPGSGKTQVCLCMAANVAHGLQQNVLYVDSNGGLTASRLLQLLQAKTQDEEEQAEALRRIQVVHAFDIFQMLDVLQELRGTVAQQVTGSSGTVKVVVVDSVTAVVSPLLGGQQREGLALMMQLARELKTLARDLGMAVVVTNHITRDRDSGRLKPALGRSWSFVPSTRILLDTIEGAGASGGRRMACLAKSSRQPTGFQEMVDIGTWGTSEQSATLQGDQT
T1 sequence (O43543 whole entry): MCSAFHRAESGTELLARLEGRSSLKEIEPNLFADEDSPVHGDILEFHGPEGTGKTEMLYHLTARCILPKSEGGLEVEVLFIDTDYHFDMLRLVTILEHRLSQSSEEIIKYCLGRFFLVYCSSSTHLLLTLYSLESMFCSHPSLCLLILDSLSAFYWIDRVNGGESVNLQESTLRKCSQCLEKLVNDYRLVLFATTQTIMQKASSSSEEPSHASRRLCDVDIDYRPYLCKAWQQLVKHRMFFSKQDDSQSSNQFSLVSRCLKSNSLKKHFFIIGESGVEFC

[2] = target: T2, BCDX2 (RAD51B-RAD51C-RAD51D-XRCC2) (Homo sapiens, UniProt O15315+O43502+O43543+O75771, O15315:K114A, form not given); test: as above; assay type: binding; details: RAD51B Walker A mutant; nucleotide co-purified with the complex; 2.5 mM Mg2+, pH 7.5
T2 construct: four-subunit complex co-expressed in Sf9 cells; N-terminal TwinStrep-TEV tag on XRCC2 removed by TEV protease
T2 sequence (O15315 1-345 K114A, form open): as the sequence (O15315 1-345) above, with K114A counted along it
T2 sequence (O43502 whole entry, form open): as the sequence (O43502 whole entry) above
T2 sequence (O75771 whole entry, form open): as the sequence (O75771 whole entry) above
T2 sequence (O43543 whole entry, form open): as the sequence (O43543 whole entry) above

[3] = target: T3, BCDX2 (RAD51B-RAD51C-RAD51D-XRCC2) (Homo sapiens, UniProt O15315+O43502+O43543+O75771, O15315:E144A, form not given); test: ATPase assay, alpha-32P-ATP, TLC; assay type: biochemical; details: RAD51B catalytic glutamate mutant; 15 µM ATP, 1 µM complex, 2.5 mM Mg2+, pH 7.5, 37 °C
T3 construct: four-subunit complex co-expressed in Sf9 cells; N-terminal TwinStrep-TEV tag on XRCC2 removed by TEV protease
T3 sequence (O15315 1-345 E144A, form open): as the sequence (O15315 1-345) above, with E144A counted along it
T3 sequence (O43502 whole entry, form open): as the sequence (O43502 whole entry) above
T3 sequence (O75771 whole entry, form open): as the sequence (O75771 whole entry) above
T3 sequence (O43543 whole entry, form open): as the sequence (O43543 whole entry) above

[4] = target: T4, BCDX2 (RAD51B-RAD51C-RAD51D-XRCC2) (Homo sapiens, UniProt O15315+O43502+O43543+O75771, O43502:E161A, form not given); test: HPLC of nucleotides extracted from purified complex; assay type: binding; details: RAD51C catalytic glutamate mutant; 2.5 mM Mg2+, pH 7.5
T4 construct: four-subunit complex co-expressed in Sf9 cells; N-terminal TwinStrep-TEV tag on XRCC2 removed by TEV protease
T4 sequence (O15315 1-345, form open): as the sequence (O15315 1-345) above
T4 sequence (O43502 whole entry E161A, form open): as the sequence (O43502 whole entry) above, with E161A counted along it
T4 sequence (O75771 whole entry, form open): as the sequence (O75771 whole entry) above
T4 sequence (O43543 whole entry, form open): as the sequence (O43543 whole entry) above

[5] = target: T5, BCDX2 (RAD51B-RAD51C-RAD51D-XRCC2) (Homo sapiens, UniProt O15315+O43502+O43543+O75771, O15315:E144A/O43502:E161A, form not given); test: as above; assay type: binding; details: RAD51B and RAD51C catalytic glutamate double mutant; 2.5 mM Mg2+, pH 7.5
T5 construct: four-subunit complex co-expressed in Sf9 cells; N-terminal TwinStrep-TEV tag on XRCC2 removed by TEV protease
T5 sequence (O15315 1-345 E144A, form open): as the sequence (O15315 1-345) above, with E144A counted along it
T5 sequence (O43502 whole entry E161A, form open): as the sequence (O43502 whole entry) above, with E161A counted along it
T5 sequence (O75771 whole entry, form open): as the sequence (O75771 whole entry) above
T5 sequence (O43543 whole entry, form open): as the sequence (O43543 whole entry) above

[6] = target: T1, BCDX2 (RAD51B-RAD51C-RAD51D-XRCC2); test: cryo-EM structure ([…] Å and […] Å); assay type: binding; details: Mg2+, sample vitrified with ADP.AlFx or ADP.BeFx
[7] = target: T1, BCDX2 (RAD51B-RAD51C-RAD51D-XRCC2); test: HPLC of nucleotides extracted from purified complex; assay type: binding; details: nucleotide co-purified with the complex; 2.5 mM Mg2+, pH 7.5; sites: RAD51B and RAD51C
[8] = target: T2, BCDX2 (RAD51B-RAD51C-RAD51D-XRCC2); test: as above; assay type: binding; details: RAD51B Walker A mutant; nucleotide co-purified with the complex; 2.5 mM Mg2+, pH 7.5; remark: listed apart in the source

| SMILES | nt of ATP bound per complex [1] | nt of ATP bound per complex [2] | % reduction of ATPase activity relative to wild-type [3] | HPLC of nucleotides extracted from purified complex [4] | HPLC of nucleotides extracted from purified complex [5] | cryo-EM structure (2.2 Å and 3.4 Å) ([6]; sites: RAD51D and XRCC2 nucleotide sites, co-purified nucleotide) | nt of ADP bound per complex [7] | cryo-EM structure (2.2 Å and 3.4 Å) ([6]; site: RAD51C nucleotide site) | nt of ADP bound per complex [8] |
| --- | --- | --- | --- | --- | --- | --- | --- | --- | --- |
| Nc1ncnc2c1ncn2[C@@H]1O[C@H](COP(=O)(O)OP(=O)(O)OP(=O)(O)O)[C@@H](O)[C@H]1O [ATP] | 2.1 ± 0.2 nt per complex | 1.8 ± 0.1 nt per complex | ~ 50% | all nucleotide binding sites were fully occupied with ATP | all nucleotide binding sites were fully occupied with ATP | RAD51D and XRCC2 bound ATP whereas RAD51C bound ADP | – | – | – |
| Nc1ncnc2c1ncn2[C@@H]1O[C@H](COP(=O)(O)OP(=O)(O)O)[C@@H](O)[C@H]1O [ADP] | – | – | – | – | – | – | 1.9 ± 0.1 nt per complex | RAD51D and XRCC2 bound ATP whereas RAD51C bound ADP | 1.2 ± 0.1 nt per complex |
